Source: PubChem BioAssay (NCI)
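Exposure lasted 48 hours, with cells grown in 96-well plates and compounds tested at five concentrations. The concentration for full growth arrest is given as TGI.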

Experiments:
Assay in all cases: growth of human tumour cells (NCI), 48 h
PC-3 prostate = tested on: PC-3 prostate
786-0 renal = tested on: 786-0 renal
OVCAR-8 ovarian = tested on: OVCAR-8 ovarian
SK-OV-3 ovarian = tested on: SK-OV-3 ovarian
HOP-62 NSCLC = tested on: HOP-62 NSCLC
MCF7 breast = tested on: MCF7 breast
HOP-92 NSCLC = tested on: HOP-92 NSCLC
SN12C renal = tested on: SN12C renal
SK-MEL-5 melanoma = tested on: SK-MEL-5 melanoma
SW-620 colon = tested on: SW-620 colon
SNB-19 CNS = tested on: SNB-19 CNS
MOLT-4 leukemia = tested on: MOLT-4 leukemia
NCI-H226 lung = tested on: NCI-H226 lung
COLO 205 colon = tested on: COLO 205 colon
A549 NSCLC = tested on: A549 NSCLC
SK-MEL-2 melanoma = tested on: SK-MEL-2 melanoma
OVCAR-4 ovarian = tested on: OVCAR-4 ovarian
MDA-MB-435 = tested on: MDA-MB-435
SK-MEL-28 melanoma = tested on: SK-MEL-28 melanoma
ACHN renal = tested on: ACHN renal
M14 melanoma = tested on: M14 melanoma
HCC-2998 colon = tested on: HCC-2998 colon
RXF 393 renal = tested on: RXF 393 renal
SF-268 CNS = tested on: SF-268 CNS
NCI-H460 lung = tested on: NCI-H460 lung
TK-10 renal = tested on: TK-10 renal
T-47D breast = tested on: T-47D breast
DU-145 prostate = tested on: DU-145 prostate
OVCAR-5 ovarian = tested on: OVCAR-5 ovarian
U251 CNS = tested on: U251 CNS
BT-549 breast = tested on: BT-549 breast
SR leukemia = tested on: SR leukemia
HCT-15 colon = tested on: HCT-15 colon
UACC-257 melanoma = tested on: UACC-257 melanoma
SF-539 CNS = tested on: SF-539 CNS
A498 renal = tested on: A498 renal
SNB-75 CNS = tested on: SNB-75 CNS
SF-295 CNS = tested on: SF-295 CNS
MDA-MB-231 breast = tested on: MDA-MB-231 breast
NCI-H23 lung = tested on: NCI-H23 lung
HCT-116 colon = tested on: HCT-116 colon
KM12 colon = tested on: KM12 colon
NCI-H522 lung = tested on: NCI-H522 lung
LOX IMVI melanoma = tested on: LOX IMVI melanoma
IGROV1 ovarian = tested on: IGROV1 ovarian
EKVX NSCLC = tested on: EKVX NSCLC
RPMI-8226 leukemia = tested on: RPMI-8226 leukemia
HL-60(TB) leukemia = tested on: HL-60(TB) leukemia
MALME-3M melanoma = tested on: MALME-3M melanoma
UACC-62 melanoma = tested on: UACC-62 melanoma
K-562 leukemia = tested on: K-562 leukemia
CCRF-CEM leukemia = tested on: CCRF-CEM leukemia
UO-31 renal = tested on: UO-31 renal
NCI/ADR-RES ovarian = tested on: NCI/ADR-RES ovarian
HT29 colon = tested on: HT29 colon
HS 578T breast = tested on: HS 578T breast
OVCAR-3 ovarian = tested on: OVCAR-3 ovarian
CAKI-1 renal = tested on: CAKI-1 renal

SMILES: CC(C)(C)[C@H]1NC(=O)CN1C(=O)OCc1ccccc1
- TGI (PC-3 prostate): > 100 µM
- TGI (786-0 renal): > 100 µM
- TGI (OVCAR-8 ovarian): > 100 µM
- TGI (SK-OV-3 ovarian): > 100 µM
- TGI (HOP-62 NSCLC): > 100 µM
- TGI (MCF7 breast): > 100 µM
- TGI (HOP-92 NSCLC): 31.9 µM
- TGI (SN12C renal): > 100 µM
- TGI (SK-MEL-5 melanoma): > 100 µM
- TGI (SW-620 colon): > 100 µM
- TGI (SNB-19 CNS): > 100 µM
- TGI (MOLT-4 leukemia): > 100 µM
- TGI (NCI-H226 lung): > 100 µM
- TGI (COLO 205 colon): > 100 µM
- TGI (A549 NSCLC): > 100 µM
- TGI (SK-MEL-2 melanoma): > 100 µM
- TGI (OVCAR-4 ovarian): > 100 µM
- TGI (MDA-MB-435): > 100 µM
- TGI (SK-MEL-28 melanoma): > 100 µM
- TGI (ACHN renal): > 100 µM
- TGI (M14 melanoma): > 100 µM
- TGI (HCC-2998 colon): > 100 µM
- TGI (RXF 393 renal): > 100 µM
- TGI (SF-268 CNS): > 100 µM
- TGI (NCI-H460 lung): > 100 µM
- TGI (TK-10 renal): > 100 µM
- TGI (T-47D breast): > 100 µM
- TGI (DU-145 prostate): > 100 µM
- TGI (OVCAR-5 ovarian): > 100 µM
- TGI (U251 CNS): > 100 µM
- TGI (BT-549 breast): > 100 µM
- TGI (SR leukemia): > 100 µM
- TGI (HCT-15 colon): > 100 µM
- TGI (UACC-257 melanoma): > 100 µM
- TGI (SF-539 CNS): > 100 µM
- TGI (A498 renal): 54.9 µM
- TGI (SNB-75 CNS): > 100 µM
- TGI (SF-295 CNS): > 100 µM
- TGI (MDA-MB-231 breast): > 100 µM
- TGI (NCI-H23 lung): > 100 µM
- TGI (HCT-116 colon): > 100 µM
- TGI (KM12 colon): > 100 µM
- TGI (NCI-H522 lung): > 100 µM
- TGI (LOX IMVI melanoma): > 100 µM
- TGI (IGROV1 ovarian): > 100 µM
- TGI (EKVX NSCLC): > 100 µM
- TGI (RPMI-8226 leukemia): > 100 µM
- TGI (HL-60(TB) leukemia): > 100 µM
- TGI (MALME-3M melanoma): > 100 µM
- TGI (UACC-62 melanoma): > 100 µM
- TGI (K-562 leukemia): > 100 µM
- TGI (CCRF-CEM leukemia): > 100 µM
- TGI (UO-31 renal): > 100 µM
- TGI (NCI/ADR-RES ovarian): > 100 µM
- TGI (HT29 colon): > 100 µM

SMILES: CCn1c(-c2cc3ccccc3cc2OC(C)=O)n[nH]c1=S
- TGI (PC-3 prostate): 39.2 µM
- TGI (786-0 renal): > 100 µM
- TGI (OVCAR-8 ovarian): > 100 µM
- TGI (HS 578T breast): 54.6 µM
- TGI (SK-OV-3 ovarian): > 100 µM
- TGI (HOP-62 NSCLC): > 100 µM
- TGI (MCF7 breast): > 100 µM
- TGI (HOP-92 NSCLC): > 100 µM
- TGI (SK-MEL-5 melanoma): 38.2 µM
- TGI (SW-620 colon): > 100 µM
- TGI (MOLT-4 leukemia): 51.3 µM
- TGI (NCI-H226 lung): > 100 µM
- TGI (SK-MEL-2 melanoma): 41.3 µM
- TGI (OVCAR-4 ovarian): > 100 µM
- TGI (MDA-MB-435): > 100 µM
- TGI (SK-MEL-28 melanoma): > 100 µM
- TGI (OVCAR-3 ovarian): 67.8 µM
- TGI (ACHN renal): > 100 µM
- TGI (M14 melanoma): > 100 µM
- TGI (HCC-2998 colon): 38.5 µM
- TGI (RXF 393 renal): 33.5 µM
- TGI (SF-268 CNS): > 100 µM
- TGI (NCI-H460 lung): 69.8 µM
- TGI (TK-10 renal): 75.6 µM
- TGI (T-47D breast): 43.3 µM
- TGI (DU-145 prostate): 81.1 µM
- TGI (OVCAR-5 ovarian): > 100 µM
- TGI (U251 CNS): 51.4 µM
- TGI (SR leukemia): 4.79 µM
- TGI (HCT-15 colon): 87.1 µM
- TGI (UACC-257 melanoma): 62.6 µM
- TGI (SF-539 CNS): > 100 µM
- TGI (A498 renal): 84.8 µM
- TGI (CAKI-1 renal): > 100 µM
- TGI (SF-295 CNS): > 100 µM
- TGI (MDA-MB-231 breast): 80.4 µM
- TGI (NCI-H23 lung): 87.9 µM
- TGI (HCT-116 colon): 41.7 µM
- TGI (KM12 colon): > 100 µM
- TGI (NCI-H522 lung): 38.8 µM
- TGI (LOX IMVI melanoma): > 100 µM
- TGI (IGROV1 ovarian): > 100 µM
- TGI (EKVX NSCLC): 57.9 µM
- TGI (RPMI-8226 leukemia): 44.6 µM
- TGI (HL-60(TB) leukemia): 19.5 µM
- TGI (K-562 leukemia): 33.1 µM
- TGI (CCRF-CEM leukemia): 34.2 µM
- TGI (UO-31 renal): > 100 µM
- TGI (NCI/ADR-RES ovarian): 60.9 µM
- TGI (HT29 colon): > 100 µM
